What was measured:
Assay type in all cases: in vivo
[1] = test system: Puccinia recondite f. sp. tritici; assay: Test D: wheat seedlings sprayed with test suspension, inoculated with Puccinia recondite f. sp. tritici (wheat leaf rust), visual disease rating
Procedure, shortened: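 Wheat seedlings were sprayed to run-off with compound suspended in 50/50 acetone–water containing 250 ppm Trem 014, at 10-200 ppm (40-800 g ai/ha). They were inoculated with rust spores the next day, then kept 24 h saturated at 20 °C and 6 days at 20 °C. Scores are visual % disease control versus untreated controls.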

Botrytis cinerea = assay: Test A: tomato seedlings sprayed with test suspension, inoculated with Botrytis cinerea (gray mold), visual disease rating
Excerpt: General protocol for preparing test suspensions for Tests A-E: the test compounds were first dissolved in acetone in an amount equal to 3% of the final volume and then suspended at the desired concentration (in ppm) in acetone and purified water (50/50 mix by volume) containing 250 ppm of the surfactant Trem® 014 (polyhydric alcohol esters). The resulting test suspensions were then used in Tests A-E. Samples were applied to plants at either a 10 ppm (**), 40 ppm, 50 ppm (*) or 200 ppm (#) test solution to the point of run-off on the test plants with the equivalent of a rate of 40 g ai/ha, 160 g ai/ha, 200 g ai/ha, or 800 g ai/ha, respectively.
The test suspension was sprayed to the point of run-off on tomato seedlings. The following day the seedlings were inoculated with a spore suspension of Botrytis cinerea (the causal agent of gray mold on many crops) and incubated in a saturated atmosphere at 20° C. for 48 h, and moved to a growth chamber at 27° C. for 2 days, after which time visual disease ratings were made.
Results for Tests A-E are given in Table A. In the Table, a rating of 100 indicates 100% disease control and a rating of 0 indicates no disease control (relative to the controls). A dash (-) indicates no test results.

[2] = test system: Stagonospora nodorum (also known as Septoria nodorum); assay: Test B: wheat seedlings sprayed with test suspension, inoculated with Stagonospora nodorum (wheat glume blotch), visual disease rating
Procedure, shortened: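 Compounds in acetone/water 50/50 with 250 ppm Trem 014 were sprayed to run-off on wheat seedlings at 10, 40, 50 or 200 ppm (40–800 g ai/ha). Plants were inoculated next day, held 48 h saturated at 20 °C, then 6 days in a growth chamber at 20 °C. Visual rating 0–100% disease control relative to controls.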

Septoria tritici = assay: Test C: wheat seedlings sprayed with test suspension, inoculated with Septoria tritici (wheat leaf blotch), visual disease rating
Procedure, shortened: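 Wheat seedlings sprayed to run-off with compound suspended in acetone/water with 250 ppm Trem 014, at 10, 40, 50 or 200 ppm (40–800 g ai/ha). Inoculated with Septoria tritici spores the next day, held 48 h saturated at 24 °C, then 21 days at 20 °C. Visual rating 0–100% disease control relative to controls.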

[3] = test system: Erysiphe graminis f. sp. tritici; assay: Test E: wheat seedlings sprayed with test suspension, inoculated with Erysiphe graminis f. sp. tritici (wheat powdery mildew), visual disease rating
Procedure, shortened: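 Wheat seedlings sprayed to run-off with compound suspension (acetone 3%, acetone/water 50/50 with 250 ppm Trem 014) at 10, 40, 50 or 200 ppm (40–800 g ai/ha), inoculated next day with spore dust. Incubated 7 or 8 days at 20° C, then rated visually as % disease control relative to controls (0–100).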

[4] = Cmpd. No. marked '#' (other test rate; meaning of mark not shown)
[5] = Cmpd. No. unmarked, 100 = 100% disease control, 0 = no control relative to controls

SMILES	Test D rating (% disease control) [1, 4]	Test D rating (% disease control) [1, 5]	Test A rating (% disease control) (Botrytis cinerea; [4])	Test A rating (% disease control) (Botrytis cinerea; [5])	Test B rating (% disease control) [2, 4]	Test B rating (% disease control) [2, 5]	Test C rating (% disease control) (Septoria tritici; [4])	Test C rating (% disease control) (Septoria tritici; [5])	Test E rating (% disease control) [3, 4]	Test E rating (% disease control) [3, 5]
Cn1cc(C(=O)N(Cc2ccc(-n3cc(Cl)cn3)cn2)C2CC2)c(C(F)F)n1 [compound 6]	28%	0%	0%	0%	98%	0%	67%	9%	13%	0%
Cn1cc(C(=O)N(Cc2ccc(-n3cc(Cl)cn3)cc2Cl)C2CC2)c(C(F)F)n1 [compound 20]	–	79%	–	32%	–	99%	–	94%	–	40%
Cn1cc(C(=O)N(Cc2ccc(-n3ccc(C(F)(F)F)n3)cc2Cl)C2CC2)c(C(F)(F)F)n1 [Compound 35]	–	9%	–	0%	–	0%	–	89%	–	0%
Cn1cc(C(=O)N(Cc2cccc(-n3ccc(C(F)(F)F)n3)c2)C2CC2)c(C(F)F)n1 [Compound 9, N-cyclopropyl-3-(difluoromethyl)-1-methyl-N-[[3-[3-(trifluoromethyl)-1H-pyrazol-1-yl]phenyl]methyl]-1H-pyrazole-4-carboxamide]	74%	9%	39%	9%	99%	93%	100%	96%	96%	81%
Cn1nc(C(F)F)c(C(=O)N(Cc2ccc(-n3cc(Br)cn3)cc2Cl)C2CC2)c1Cl [compound 31]	–	98%	–	0%	–	0%	–	42%	–	0%
Cc1cc(-n2ccc(C(F)(F)F)n2)cc(CN(C(=O)c2cn(C)nc2C(F)F)C2CC2)c1F [compound 29]	–	68%	–	0%	–	94%	–	83%	–	48%
CC(c1ccc(-n2ccc(C(F)(F)F)n2)nc1)N(C(=O)c1cn(C)nc1C(F)F)C1CC1 (stereo not drawn) [Compound 1, N-cyclopropyl-3-(difluoromethyl)-1-methyl-N-[1-[6-[3-(trifluoromethyl)-1H-pyrazol-1-yl]-3-pyridinyl]ethyl]-1H-pyrazole-4-carboxamide]	28%	0%	0%	0%	69%	0%	93%	86%	98%	96%
Cn1cc(C(=O)N(Cc2ccc(-n3ccc(C(F)(F)F)n3)cc2Cl)C2CC2)c(C(F)F)n1 [compound 11]	–	54%	–	0%	–	89%	–	100%	–	43%
Cn1nc(C(F)F)c(C(=O)N(Cc2ccc(-n3ccc(C(F)(F)F)n3)cc2Cl)C2CC2)c1F [Compound 12, N-[[2-chloro-4-[3-(trifluoromethyl)-1H-pyrazol-1-yl]phenyl]methyl]-N-cyclopropyl-3-(difluoromethyl)-5-fluoro-1-methyl-1H-pyrazole-4-carboxamide]	–	99%	–	0%	–	100%	–	100%	–	97%
Cn1cc(C(=O)N(Cc2ccc(-n3ccc(-c4ccccc4)n3)cn2)C2CC2)c(C(F)F)n1 [compound 8]	74%	0%	0%	0%	0%	0%	88%	27%	0%	0%
Cn1nc(C(F)F)c(C(=O)N(Cc2cccc(-n3ccc(C(F)(F)F)n3)c2)C2CC2)c1F [Compound 3, N-cyclopropyl-3-(difluoromethyl)-5-fluoro-1-methyl-N-[[3-[3-(trifluoromethyl)-1H-pyrazol-1-yl]phenyl]methyl]-1H-pyrazole-4-carboxamide]	–	99%	–	0%	–	100%	–	100%	–	99%
Cn1cc(C(=O)N(Cc2cc(-n3ccc(C(F)(F)F)n3)ccc2[N+](=O)[O-])C2CC2)c(C(F)F)n1 [compound 13]	–	32%	–	0%	–	0%	–	0%	–	0%
Cn1nc(C(F)F)c(C(=O)N(Cc2ccc(-n3cc(Br)cn3)cc2Cl)C2CC2)c1F [compound 34]	–	100%	–	23%	–	100%	–	94%	–	95%
COc1ccc(-n2ccc(C(F)(F)F)n2)cc1CN(C(=O)c1cn(C)nc1C(F)F)C1CC1 [compound 14]	–	32%	–	0%	–	42%	–	83%	–	92%
Cc1nc(C(F)(F)F)c(C(=O)N(Cc2ccc(-n3ccc(C(F)(F)F)n3)cc2Cl)C2CC2)s1 [Compound 151]	–	23%	–	23%	–	0%	–	87%	–	0%
Cc1ccc(CN(C(=O)c2cn(C)nc2C(F)F)C2CC2)cc1-n1ccc(C(F)(F)F)n1 [compound 27]	–	31%	–	0%	–	92%	–	38%	–	21%
Cn1cc(C(=O)N(Cc2cccc(-n3ccc(C(F)(F)F)n3)c2C(F)(F)F)C2CC2)c(C(F)F)n1 [compound 41]	–	23%	–	0%	–	0%	–	94%	–	40%

From patent publication US10098350B2, “Fungicidal amides” (E. I. DU PONT DE NEMOURS AND COMPANY, priority 2013, dated 2018)
